Source: patent US20230027059A1, “METHODS AND COMPOSITIONS FOR GENERATING HUMAN MIDBRAIN NEURAL PROGENITOR CELLS” (Trallhead Biosystems Inc., priority 2021, published 2023)

What was measured:
[1] = test system: human pluripotent stem cells; assay: 13-factor HD-DoE experiment, stage 1: 3-day effector treatment, gene expression modeled, with dynamic profile and factor criticality analysis; type: cell-based; details: for LMX1A expression level in absence of the factor / FOXA2 expression level in absence of the factor / DMBX1 expression level in absence of the factor / OTX2 expression level in absence of the factor: stage 1 recipe, other four factors present; for LMX1A expression level in absence of the factor: 300 with all five factors; for FOXA2 expression level in absence of the factor: 600 with all five factors; for DMBX1 expression level in absence of the factor: 3000 with all five factors; for OTX2 expression level in absence of the factor: 12000 with all five factors
Text: This example utilizes a method of High-Dimensional Design of Experiments (HD-DoE), as previously described in Bukys et al. (2020) Iscience 23:101346. The method employs computerized design geometries to simultaneously test multiple process inputs and offers mathematical modeling of a deep effector/response space. The method allows for finding combinatorial signaling inputs that control a complex process, such as during cell differentiation.
It allows testing of multiple plausible critical process parameters, as such parameters impact output responses, such as gene expression. Because gene expression provides hallmark features of the phenotype of, for example, a human cell, the method can be applied to identify, and understand, which signaling pathways control cell fate. In the current example, the HD-DOE method was applied with the intent to find conditions for induction of midbrain neural progenitor-expressed genes, directly from the pluripotent stem cell state.
To develop the recipe for each stage, the impact of agonists and antagonists of multiple signaling pathways (referred to herein as “effectors”) on the expression of two sets of 53 pre-selected genes after a 3-day treatment was tested and modeled. These effectors are small molecules or proteins that are commonly used during stepwise differentiation of stem cells to specific fates. The choice of the effectors to test was based on current literature on neural induction in the midbrain region of the developing brain and differentiation of stem cells to neural progenitors.
To test the effectors, experiments with at least 8 factors were designed that can assess the response of cells to 48 or more different combinations of effectors in a range of concentrations. To analyze the models, we focused on expression of genes expressed in the midbrain region, including OTX2, DMBX1, FOXA2, LMX1A, and on the absence of GB X2, which is a hindbrain marker. The impact of each effector on gene expression level is defined by a parameter called factor contribution that is calculated for each effector during the modeling.
To identify the recipe of stage 1 of differentiation, cells were treated with various effectors for 3 days and the gene expression of cells was modeled. […] This model consisted of 13 factors including LDN193189, PD173074, BLU9931, Purmorphamine, SC79, MK2206, ZM336372, PD0325901, CHIR99021, XAV939, UCLA-gp130, Tofacitinib and GO 6983.
LDN193189 and CHIR99021 are common in both optimization settings and the rest of the factors except Purmorphamine, have a factor contribution less than 10. Therefore, we focused on impact of addition of Purmorphamine to the original 4 effectors.
This assessment was done through dynamic profile analysis of the model with focus on expression of OTX2, DMBX1, LMX1A and FOXA2 (FIG. 3).
To assess the impact of elimination of each validated factor, we used dynamic profile analysis and compared the expression level of genes of interest in absence of each finalized factor while others are present.
In the stage 1 recipe, each of the five finalized factors were removed while the other four factors were present and the expression levels of OTX2, DMBX1, FOXA2 and LMX1A was assessed compared to the levels in the presence of all five factors (FIGS. 11A-B). […] Expression level of DMBX1 increased in absence of LDN193189, however values of OTX2, FOXA2 and LMX1A decreased.

[2] = test system: stage 1 neural stem cells; assay: First 12-factor HD-DoE experiment, stage 2: additional 3 days after stage 1, gene expression modeled, with dynamic profile and factor criticality analysis; type: cell-based, human; details: for FOXA2 expression level in absence of the factor / LMX1A expression level in absence of the factor: stage 2 recipe, first experiment model; for FOXA2 expression level in absence of the factor: 10,000 with all factors; for LMX1A expression level in absence of the factor: 30,000 with all factors
Method: To develop the recipe for each stage, the impact of agonists and antagonists of multiple signaling pathways (referred to herein as “effectors”) on the expression of two sets of 53 pre-selected genes after a 3-day treatment was tested and modeled. These effectors are small molecules or proteins that are commonly used during stepwise differentiation of stem cells to specific fates. The choice of the effectors to test was based on current literature on neural induction in the midbrain region of the developing brain and differentiation of stem cells to neural progenitors. To test the effectors, experiments with at least 8 factors were designed that can assess the response of cells to 48 or more different combinations of effectors in a range of concentrations. To analyze the models, we focused on expression of genes expressed in the midbrain region, including OTX2, DMBX1, FOXA2, LMX1A, and on the absence of GB X2, which is a hindbrain marker. The impact of each effector on gene expression level is defined by a parameter called factor contribution that is calculated for each effector during the modeling. To further guide the differentiation of midbrain-committed neural stem cells to neural progenitor cells at stage 2, we performed an additional HD-DoE experiment. We thereby obtained additional gene regulatory models that were used for preparation of differentiation protocol. The basis of this was a 12-factor HD-DoE experiment with focus on initiation of differentiation of cells toward midbrain neural progenitor cells for an additional 3 days after termination of stage 1 treatment. Here, we focused on expression of LMX1A and FOXA2 in neural progenitor cells with low to zero expression of GBX2. LMX1A had significant high expression level in the model with value of 47888. Therefore, we used optimization setting for this gene to identify the positive factors. The factors in this experiment included SC79, MK2206, ZM336372, PD0325901, CHIR99021, A 83-01, TTNPB, AGN193109, GW3965, SR9243, Purmorphamine and GSI-XX. […] Therefore, we used dynamic profile analysis to adjust the recipe for optimized expression of both LMX1A and FOXA2 genes and minimum expression of GBX2 (FIG. 7). It was observed that even without addition of Purmorphamine, expression level of FOXA2 was at 5000, therefore inclusion of this effector is not essential, however it can improve expression of FOXA2. […] A 83-01 was another factor with opposite effect on FOXA2 and LMX1A that was included in the final recipe. […] To assess the impact of elimination of each validated factor, we used dynamic profile analysis and compared the expression level of genes of interest in absence of each finalized factor while others are present. […] In the stage 2 recipe, each of the six finalized factors were removed while the other five factors were present and the expression levels of FOXA2, LMX1A and GBX2 were assessed, compared to the levels in the presence of all factors. According to the first experiment model, the absence of TTNPB lead to a rise of GBX2 expression, while the value of FOXA2 and LMX1A reduced drastically from 10,000 to 0 and 30,000 to 15,000, respectively. The absence of A 83-01 reduced the expression of FOXA2 from 10,000 to 7000, however, as expected, the value of LMX1A increased from 30,000 to 40,000. […] According to the second experiment model, the absence of BMP7 and MK2206 both reduced the level of FOXA2 while increasing the value of LMX1A, with BMP7 as the main effector that led to 0 expression of FOXA2.

[3] = test system: stage 1 neural stem cells; assay: Second 12-factor HD-DoE experiment, stage 2: hiPSCs in stage 1 media 3 days, then 96 factor combinations for 3 days, with dynamic profile and factor criticality analysis; type: cell-based, human; details: for FOXA2 expression level in absence of the factor / LMX1A expression level in absence of the factor: stage 2 recipe, second experiment model; for LMX1A expression level in absence of the factor: 4000 with all factors; for factor contribution: negative impact; for impact on expression of GBX2: stage 2, second 12-factor experiment, dynamic profile
Method: To test additional factors like FGF8 that is routinely used in midbrain differentiation protocols, we ran another 12-factor experiment consisting of LDN193189, BMP7, A 83-01, Activin A, Takinib, PD0325901, MK2206, FGF8b, AZD3147, MHY1485, GSI-XX and Yhhu 3792. Similar to the previous experiment, hiPSCs were treated with stage 1 media for 3 days and then treated with 96 conditions of combinations of the factors for an additional 3 days. When this model was optimized for maximum expression of FOXA2, BMP7 with factor contribution of 13.7 and MK2206 with 14.2 had the most impact on its expression followed by AZD 3147 with factor contribution of 10.9. […] Another difference was BMP7, which has a negative impact on LMX1A. However, the factor contribution is less than 10. Therefore, to evaluate the effect of interactions between the factors and the optimal condition for the expression of both FOXA2 and LMX1A, we used dynamic profile analysis (FIG. 10). […] To assess the impact of elimination of each validated factor, we used dynamic profile analysis and compared the expression level of genes of interest in absence of each finalized factor while others are present. […] In the stage 2 recipe, each of the six finalized factors were removed while the other five factors were present and the expression levels of FOXA2, LMX1A and GBX2 were assessed, compared to the levels in the presence of all factors. According to the first experiment model, the absence of TTNPB lead to a rise of GBX2 expression, while the value of FOXA2 and LMX1A reduced drastically from 10,000 to 0 and 30,000 to 15,000, respectively. The absence of A 83-01 reduced the expression of FOXA2 from 10,000 to 7000, however, as expected, the value of LMX1A increased from 30,000 to 40,000. […] According to the second experiment model, the absence of BMP7 and MK2206 both reduced the level of FOXA2 while increasing the value of LMX1A, with BMP7 as the main effector that led to 0 expression of FOXA2.

[4] = stage 2, first 12-factor experiment, dynamic profile
[5] = dynamic profile, Purmorphamine added to the original 4 effectors

Cc1c[nH]c(-c2cnc(NCCNc3ccc(C#N)cn3)nc2-c2ccc(Cl)cc2Cl)n1 [CHIR99021]
LMX1A expression level in absence of the factor [1]: reduced
FOXA2 expression level in absence of the factor [1]: reduced
DMBX1 expression level in absence of the factor [1]: reduced
OTX2 expression level in absence of the factor [1]: reduced
impact on expression of GBX2 [2, 4]: increases
impact on expression of LMX1A [2, 4]: positive impacts

Cc1cccc(-c2nn(C(=S)Nc3ccccc3)cc2-c2ccnc3ccccc23)n1 [A 83-01]
FOXA2 expression level in absence of the factor [2]: 7000
LMX1A expression level in absence of the factor [2]: 40,000

C[C@H]1COCCN1c1cc(C2(S(=O)(=O)C3CC3)CC2)nc(-c2ccc(NC(=S)NCCO)cc2)n1 [AZD 3147]
FOXA2 expression level in absence of the factor [3]: almost no effect
LMX1A expression level in absence of the factor [3]: 2000

FGF8b
factor contribution ([3]; model optimized for maximum expression of FOXA2): 12.8
factor contribution ([3]; model optimized for maximum expression of LMX1A): 16.9

c1ccc2c(Oc3nc(Nc4ccc(N5CCOCC5)cc4)c4ncn(C5CCCCC5)c4n3)cccc2c1 [Purmorphamine]
DMBX1 expression level [1, 5]: ~3000
LMX1A expression level [1, 5]: ~450
OTX2 expression level [1, 5]: ~11000
LMX1A expression level in absence of the factor [1]: beneficial
FOXA2 expression level in absence of the factor [1]: reduction
DMBX1 expression level in absence of the factor [1]: beneficial
OTX2 expression level in absence of the factor [1]: beneficial
expression level of FOXA2 without addition of the effector ([2]; dynamic profile analysis, stage 2): 5000

c1ccc2c(-c3cnn4cc(-c5ccc(N6CCNCC6)cc5)cnc34)ccnc2c1 [LDN193189]
LMX1A expression level in absence of the factor [1]: decreased
FOXA2 expression level in absence of the factor [1]: decreased
DMBX1 expression level in absence of the factor [1]: increased
OTX2 expression level in absence of the factor [1]: decreased

NC1(c2ccc(-c3nc4ccn5c(=O)[nH]nc5c4cc3-c3ccccc3)cc2)CCC1 [MK2206]
LMX1A expression level in absence of the factor [1]: stayed the same
FOXA2 expression level in absence of the factor [1]: stayed the same
DMBX1 expression level in absence of the factor [1]: 1500
OTX2 expression level in absence of the factor [1]: 9500
impact on expression of GBX2 [3]: desirable impact
FOXA2 expression level in absence of the factor [3]: reduced
LMX1A expression level in absence of the factor [3]: increasing

O=C(O)Cc1cccc(OCCCN(Cc2cccc(C(F)(F)F)c2Cl)CC(c2ccccc2)c2ccccc2)c1 [GW3965]
FOXA2 expression level in absence of the factor [2]: 17,000
LMX1A expression level in absence of the factor [2]: 10,000

COc1cccc(Oc2cccc3nc(Nc4ccc(C(C)C)cc4)nc(N)c23)c1 [Yhhu 3792]
impact on expression of GBX2 [3]: positive effect

C/C(=C\c1ccc(C(=O)O)cc1)c1ccc2c(c1)C(C)(C)CCC2(C)C [TTNPB]
FOXA2 expression level in absence of the factor [2]: 0
LMX1A expression level in absence of the factor [2]: 15,000

O=C(NOC[C@H](O)CO)c1ccc(F)c(F)c1Nc1ccc(I)cc1F [PD0325901]
LMX1A expression level in absence of the factor [1]: 500
FOXA2 expression level in absence of the factor [1]: 700
DMBX1 expression level in absence of the factor [1]: 900

B1: BMP7 (protein, UniProt P18075 293-431, looked up)
Bone morphogenetic protein 7: STGSKQRSQNRSKTPKNQEALRMANVAENSSSDQRQACKKHELYVSFRDLGWQDWIIAPEGYAAYYCEGECAFPLNSYMNATNHAIVQTLVHFINPETVPKPCCAPTQLNAISVLYFDDSSNVILKKYRNMVVRACGCH
notes: BMP pathway agonist
FOXA2 expression level in absence of the factor [3]: 0
LMX1A expression level in absence of the factor [3]: increasing
